Reference: US8722849B2, “Polypeptides” (Novo Nordisk A/S, priority 2011, dated 2014)
Values after ≈ are worked out from the molar mass of the structure shown. Where two headings read alike, the source gives them in different places. Starred links: 1 amine or outer side, 2 acyl side, 3 side chain; linkers in the order of their positions; H or OH if unused. Positions of bridges follow the written chain, without caps; N, C: chain ends. Residues, ends and D or L forms follow the SMILES beside them. *: point of attachment. C20 diacid = O=C(O)CCCCCCCCCCCCCCCCCCC(=O)*; γGlu = O=C(O)[C@H](CCC(=O)[*:2])N[*:1]

What was measured:
[1] = biological target: T1, human amylin receptor (amylin 3(a) receptor: human calcitonin receptor + RAMP-3) (Homo sapiens, UniProt O60896+P30988); assay: Assay (II)a functional CRE-luciferase assay, human amylin receptor; type: cell-based
T1 construct: expressed in transfected cells; host or cells: BHK570
T1 sequence (P30988 25-474): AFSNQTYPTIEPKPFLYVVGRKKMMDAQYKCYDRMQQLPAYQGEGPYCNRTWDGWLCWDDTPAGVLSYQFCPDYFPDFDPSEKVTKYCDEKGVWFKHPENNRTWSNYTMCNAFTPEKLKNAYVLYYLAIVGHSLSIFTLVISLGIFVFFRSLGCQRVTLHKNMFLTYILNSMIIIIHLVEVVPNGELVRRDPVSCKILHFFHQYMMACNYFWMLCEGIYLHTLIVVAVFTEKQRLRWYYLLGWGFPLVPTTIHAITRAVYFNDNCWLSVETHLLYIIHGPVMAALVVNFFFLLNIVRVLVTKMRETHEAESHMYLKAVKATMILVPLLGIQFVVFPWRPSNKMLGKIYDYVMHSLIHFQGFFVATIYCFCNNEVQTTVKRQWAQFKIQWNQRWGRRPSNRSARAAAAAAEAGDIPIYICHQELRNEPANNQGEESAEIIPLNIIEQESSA
T1 sequence (O60896 24-148 partner): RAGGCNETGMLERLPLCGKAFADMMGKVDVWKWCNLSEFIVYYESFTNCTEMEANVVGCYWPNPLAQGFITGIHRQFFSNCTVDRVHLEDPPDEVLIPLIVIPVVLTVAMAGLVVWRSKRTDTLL

[2] = biological target: T2, human calcitonin receptor (Homo sapiens, UniProt P30988); assay: Assay (II)a functional CRE-luciferase assay, human calcitonin receptor; type: cell-based; conditions: Table 7; human calcitonin (CTa) receptor
T2 construct: expressed in transfected cells; host or cells: BHK570
T2 sequence (P30988 25-474): T1 sequence (P30988 25-474)

food intake = assay: Assay (I) efficacy testing on appetite (food intake), ad libitum fed rat model; type: in vivo, Sprague Dawley (SD) rats; conditions: 3 nmol/kg
Summary of the method: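 Sprague Dawley rats (200–250 g), single-housed under reversed light cycle with free food and water, got one ip, po or sc dose of 0.01–3 mg/kg just before lights-off. Individual food intake recorded hourly for 7 h, then at 24 h and sometimes 48 h; groups of 5–8, Grubbs outliers excluded.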

[3] = Assay (IV) determination of solubility; type: physicochemical
Summary of the method: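 Polypeptide in water (~500 nmol/ml) mixed 1:1 with 100 mM glycylglycine (pH 3.0–5.0) or bistrispropane (pH 6.0–8.0) buffers. Held 18 hours at room temperature, then centrifuged. Polypeptide remaining in solution quantified by HPLC.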

[4] = biological target: T3, rat amylin 3(a) receptor (rat calcitonin(a) receptor + rat RAMP3) (Rattus norvegicus, UniProt P32214+Q9JJ73); assay: Assay (II)b functional cAMP FlashPlate assay, rat amylin receptor; type: cell-based; conditions: Table 11
T3 construct: expressed in transfected cells; host or cells: BHK tk'ts 13
T3 sequence (P32214 25-479 isoform P32214-2 limits assumed): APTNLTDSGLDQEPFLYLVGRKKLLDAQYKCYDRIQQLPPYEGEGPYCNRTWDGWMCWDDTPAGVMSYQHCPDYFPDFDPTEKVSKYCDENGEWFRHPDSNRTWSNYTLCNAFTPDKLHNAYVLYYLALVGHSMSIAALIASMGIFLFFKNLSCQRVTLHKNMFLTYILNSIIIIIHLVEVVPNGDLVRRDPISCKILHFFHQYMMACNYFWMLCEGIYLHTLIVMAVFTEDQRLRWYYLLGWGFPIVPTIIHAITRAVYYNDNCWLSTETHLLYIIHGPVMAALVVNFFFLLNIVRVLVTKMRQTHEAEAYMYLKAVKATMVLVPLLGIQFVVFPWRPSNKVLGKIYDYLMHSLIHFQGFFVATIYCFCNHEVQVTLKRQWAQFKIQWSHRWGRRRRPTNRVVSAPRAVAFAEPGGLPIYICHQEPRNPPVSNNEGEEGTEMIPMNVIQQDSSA
T3 sequence (Q9JJ73 23-147 partner): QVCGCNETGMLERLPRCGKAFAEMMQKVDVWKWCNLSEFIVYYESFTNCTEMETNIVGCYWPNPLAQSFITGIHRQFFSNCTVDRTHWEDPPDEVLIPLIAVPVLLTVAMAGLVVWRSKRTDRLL
Description: (§1) Assay (II)b—Rat Calcitonin and Rat Amylin Receptor Assays
(§2) Activation of calcitonin and amylin (coexpression of calcitonin receptor and receptor activity modifying proteins (RAMP)) receptors lead to increased intracellular concentrations of cAMP. In order to quantify the cAMP levels in transiently transfected cells the Adenylyl Cyclase Activation FlashPlate® Assay from […] was used. The basic principle of the FlashPlate® Assay is a competition between radioactive and non-radioactive cAMP generated by the cells for a fixed number of binding sites.
(§3) Construction of rat calcitonin(a)—and rat amylin 3(a)-receptor cells.
(§4) BHK tk'ts 13 cells were transiently transfected with either rat calcitonin (a) receptor or amylin 3 (a) receptor (rat calcitonin(a) receptor+ rat RAMP3) using FuGENE® 6 (ROCHE), according to the manufacturers recommendations.
(§5) 24 hours after transient transfection the cells (rat calcitonin(a)—or rat amylin 3(a)—receptor cells) were added (100.000 cells/well) to the 96 well FlashPlates® with samples or standard in FlashPlate stimulation buffer with IBMX and incubated for 30 min. Detection mix was created according to manufacturers protocol and scintillation measured after 3 h of incubation on TopCounter™ (Packard).

[5] = biological target: T4, rat calcitonin (a) receptor (Rattus norvegicus, UniProt P32214); assay: Assay (II)b functional cAMP FlashPlate assay, rat calcitonin receptor; type: cell-based; conditions: Table 11; read-out: CTa receptor rat EC50
T4 construct: expressed in transfected cells; host or cells: BHK tk'ts 13
T4 sequence (P32214 25-479 isoform P32214-2 limits assumed): T3 sequence (P32214 25-479 isoform P32214-2 limits assumed)
Description: as §1, §2, §3, §4, §5

[6] = Table 2, BHK amylin 3(a)-receptor/CRE-luc cells
[7] = bistrispropane buffer, pH 6, pH 6.0, read-out: Solubility pH 6.0
[8] = bistrispropane buffer, pH 6.5, pH 6.5, read-out: Solubility pH 6.5
[9] = bistrispropane buffer, pH 7, pH 7.0, 18 hours at room temperature, Table 3, read-out: Solubility pH 7.0
[10] = bistrispropane buffer, pH 7, pH 7.0, read-out: Solubility pH 7.0
[11] = bistrispropane buffer, pH 7.5, pH 7.5, read-out: Solubility pH 7.5
[12] = bistrispropane buffer, pH 8, pH 8.0, read-out: Solubility pH 8.0
[13] = glycylglycine buffer, pH 3, pH 3.0, read-out: Solubility pH 3.0
[14] = glycylglycine buffer, pH 4, pH 4.0, 18 hours at room temperature, Table 2, read-out: Solubility pH 4.0
[15] = glycylglycine buffer, pH 4, pH 4.0, read-out: Solubility pH 4.0

CC[C@H](C)[C@H](NC(=O)[C@@H]1CCCN1C(=O)CNC(=O)[C@H](Cc1ccccc1)NC(=O)[C@H](CC(N)=O)NC(=O)[C@H](CC(N)=O)NC(=O)[C@H](CO)NC(=O)[C@H](CO)NC(=O)[C@H](CCCNC(=N)N)NC(=O)[C@H](Cc1c[nH]cn1)NC(=O)[C@H](CC(C)C)NC(=O)[C@H](Cc1ccccc1)NC(=O)[C@H](CCC(=O)O)NC(=O)[C@H](C)NC(=O)[C@H](CC(C)C)NC(=O)[C@H](CCCNC(=N)N)NC(=O)[C@H](CCC(N)=O)NC(=O)[C@@H](NC(=O)[C@H](C)NC(=O)[C@@H]1CSSC[C@H](NC(=O)CC[C@H](NC(=O)CCCCCCCCCCCCCCCCCCC(=O)O)C(=O)O)C(=O)NCC(=O)N[C@@H]([C@@H](C)O)C(=O)N[C@@H](C)C(=O)N[C@@H]([C@@H](C)O)C(=O)N1)[C@@H](C)O)C(=O)N[C@@H](CC(C)C)C(=O)N1CCC[C@H]1C(=O)N1CCC[C@H]1C(=O)N[C@H](C(=O)N[C@@H](CCC(=O)O)C(=O)N[C@H](C(=O)NCC(=O)N[C@@H](CO)C(=O)NCC(=O)N[C@H](C(=O)N[C@@H](Cc1ccc(O)cc1)C(N)=O)[C@@H](C)O)C(C)C)[C@@H](C)O [Example 3, N-alpha-[(S)-4-Carboxy-4-(19-carboxynonadecanoylamino)butyryl]-[des1,Gly3,Glu14,His17,Arg18,Glu31,Gly35]-pramlintide] ({C20 diacid-γGlu}-CGTATCATQRLAEFLHRSSNNFGPILPPTEVGSGTY-NH2; disulfide 1-6 (inferred))
EC50 [1, 6]: 0.164 nM | EC50 [2]: 0.222 nM | Food intake reduction 0-24 h 3 nmol/kg (%) (food intake; 0-24 h): 37% | Food intake reduction 24-48 h 3 nmol/kg (%) (food intake; 24-48 h): 32% | solubility at 18 h [3, 7]: > 200 µM | solubility at 18 h [3, 8]: > 200 µM | solubility at 18 h [3, 9]: > 200 µM | solubility at 18 h [3, 10]: > 200 µM | solubility at 18 h [3, 11]: > 200 µM | solubility at 18 h [3, 12]: > 200 µM | solubility at 18 h [3, 13]: > 200 µM | solubility at 18 h [3, 14]: > 200 µM | solubility at 18 h [3, 15]: > 200 µM | solubility at 18 h ([3]; glycylglycine buffer, pH 5, pH 5.0, read-out: Solubility pH 5.0): 68 µM (≈ 289 µg/mL)

CC[C@H](C)[C@H](NC(=O)[C@@H]1CCCN1C(=O)CNC(=O)[C@H](Cc1ccccc1)NC(=O)[C@H](CO)NC(=O)[C@H](CO)NC(=O)[C@H](CO)NC(=O)[C@H](CO)NC(=O)[C@H](CCCNC(=N)N)NC(=O)[C@H](Cc1cnc[nH]1)NC(=O)[C@H](CC(C)C)NC(=O)[C@H](Cc1ccccc1)NC(=O)[C@H](CCC(=O)O)NC(=O)[C@H](C)NC(=O)[C@H](CC(C)C)NC(=O)[C@H](CCCNC(=N)N)NC(=O)[C@H](CCC(N)=O)NC(=O)[C@@H](NC(=O)[C@H](C)NC(=O)[C@@H]1CSSC[C@H](NC(=O)[C@H](Cc2cnc[nH]2)NC(=O)CC[C@H](NC(=O)CCCCCCCCCCCCCCCCCCC(=O)O)C(=O)O)C(=O)N[C@@H](CC(N)=O)C(=O)N[C@@H]([C@@H](C)O)C(=O)N[C@@H](C)C(=O)N[C@@H]([C@@H](C)O)C(=O)N1)[C@@H](C)O)C(=O)N[C@@H](CC(C)C)C(=O)N1CCC[C@H]1C(=O)N1CCC[C@H]1C(=O)N[C@H](C(=O)N[C@@H](CC(=O)O)C(=O)N[C@H](C(=O)NCC(=O)N[C@@H](CO)C(=O)N[C@@H](CC(=O)O)C(=O)N[C@H](C(=O)N[C@@H](Cc1ccc(O)cc1)C(N)=O)[C@@H](C)O)C(C)C)[C@@H](C)O [Example 9, N-alpha-[(S)-4-Carboxy-4-(19-carboxynonadecanoylamino)butyryl]-[His1,Glu14,His17,Arg18,Ser21,Ser22,Asp31,Asp35]-pramlintide] ({C20 diacid-γGlu}-HCNTATCATQRLAEFLHRSSSSFGPILPPTDVGSDTY-NH2; disulfide 2-7)
EC50 [4]: 0.33 nM | EC50 [1, 6]: 0.212 nM | EC50 [2]: 0.208 nM | solubility at 18 h [3, 7]: > 200 µM | solubility at 18 h [3, 8]: > 200 µM | solubility at 18 h [3, 9]: > 200 µM | solubility at 18 h ([3]; bistrispropane buffer, pH 7, pH 7.0, Table 8, read-out: Solubility pH 7.0): > 200 µM | solubility at 18 h ([3]; bistrispropane buffer, pH 7, pH 7.0, Table 9, read-out: Solubility pH 7.0): > 200 µM | solubility at 18 h [3, 10]: > 200 µM | solubility at 18 h ([3]; bistrispropane buffer, pH 7.5, pH 7.5, Table 9, read-out: Solubility pH 7.5): > 200 µM | solubility at 18 h [3, 11]: > 200 µM | solubility at 18 h [3, 12]: > 200 µM | solubility at 18 h [3, 13]: > 200 µM | solubility at 18 h [3, 14]: 116 µM (≈ 514 µg/mL) | solubility at 18 h [3, 15]: 116 µM (≈ 514 µg/mL) | solubility at 18 h ([3]; pH 5.0, read-out: Solubility pH 5.0): 5 µM (≈ 22.2 µg/mL) | EC50 [5]: 1.73 nM

CC(C)C[C@H](NC(=O)[C@H](CCCNC(=N)N)NC(=O)[C@H](CCC(N)=O)NC(=O)[C@@H](NC(=O)[C@H](C)NC(=O)[C@@H]1CSSC[C@H](NC(=O)[C@H](CCC(=O)O)NC(=O)CC[C@H](NC(=O)CCCCCCCCCCCCCCCCCCC(=O)O)C(=O)O)C(=O)NCC(=O)N[C@@H]([C@@H](C)O)C(=O)N[C@@H](C)C(=O)N[C@@H]([C@@H](C)O)C(=O)N1)[C@@H](C)O)C(=O)N[C@@H](C)C(=O)N[C@@H](CCC(=O)O)C(=O)N[C@@H](Cc1ccccc1)C(=O)N[C@@H](CC(C)C)C(=O)N[C@H](C(=O)N[C@@H](CCCNC(=N)N)C(=O)N[C@@H](CO)C(=O)N[C@@H](CO)C(=O)N[C@@H](CO)C(=O)N[C@@H](CO)C(=O)N[C@@H](Cc1ccccc1)C(=O)NCC(=O)N[C@@H](C)C(=O)N1CCC[C@H]1C(=O)N[C@@H](CC(C)C)C(=O)N[C@@H](CO)C(=O)N[C@@H](CO)C(=O)N[C@H](C(=O)N[C@@H](CCC(=O)O)C(=O)N[C@H](C(=O)NCC(=O)N[C@@H](CO)C(=O)N[C@@H](CCCNC(=N)N)C(=O)N[C@H](C(=O)N[C@@H](Cc1ccc(O)cc1)C(N)=O)[C@@H](C)O)C(C)C)[C@@H](C)O)C(C)C [Example 24, N-alpha-[(S)-4-Carboxy-4-(19-carboxynonadecanoylamino)butyryl]-[Glu1,Gly3,Glu14,Arg18,Ser21,Ser22,Ala25,Pro26,Ser28,Ser29,Glu31,Arg35]-pramlintide] ({C20 diacid-γGlu}-ECGTATCATQRLAEFLVRSSSSFGAPLSSTEVGSRTY-NH2; disulfide 2-7 (inferred); C-terminus assumed)
EC50 [4]: 4.51 nM | EC50 ([1]; Table 6, human amylin receptor): 1.44 nM | EC50 [2]: 0.672 nM | EC50 [5]: 1.75 nM
